In patent publication US9375438B2, “Inhibitors of NCCa-ATP channels for therapy” (University of Maryland, Baltimore, priority 2007, dated 2016):

Legend:
uninjured rats = test: Tail tip bleeding time; type: in vivo, rat; details: for bleeding time (effect): uninjured rats infused with glibenclamide vs vehicle
Method: Bleeding times were measured using tail tip bleeding as described (Lorrain et al., 2003).

[1] = system: rats with hemi-cervical spinal cord contusion (SCI); details: following SCI (Simard et al., 2007); cited from earlier work
[2] = system: rats with hemi-cervical spinal cord contusion (SCI); test: SCI model: neurobehavioral assessment (inclined plane, paw placement, rearing); type: in vivo, rat
Method: (§1) SCI injury model. This study was performed in accordance with the guidelines of the Institutional Animal Care and Use Committee. Adult female Long-Evans rats (275-350 gm) were anesthetized (Ketamine, 60 mg/kg plus Xylazine, 7.5 mg/kg, i.p.). The dura at C4-5 was exposed via a left hemilaminectomy. A hemi-cervical spinal cord contusion was created using a blunt force impactor (1.3-mm impactor head driven by a 10 gm weight dropped vertically 25 mm) (Soblosky et al., 2001; Gensel et al., 2006). After SCI, animals were given 10 ml of glucose-free normal saline s.q. Rectal temperature was maintained at ˜37° C. using a servo-controlled warming blanket.
For in vivo gene suppression of SUR1, we used oligodeoxynucleotides that were phosphorothioated at 4 distal bonds to protect against endogenous nucleases (35).
Neurobehavioral Assessment. All measurements were performed by blinded evaluators. Performance on the inclined plane was evaluated as described (Rivlin and Tator, 1977). To assess paw placement and vertical exploration (rearing) (Nikulina et al., 2004) animals were videotaped while in a translucent cylinder (19×20 cm). Rearing was quantified as the number of seconds spent with both front paws elevated above shoulder-height during a 3-min period of observation.

[3] = rat, in vivo
Method: as §1, with “blanket. Blood gases and serum glucose 10-15 min post-SCI were: pO2, 95±6 mm Hg; pCO2, 46±3 mm Hg; pH, 7.33±0.01; glucose 258±17 mg/dl in controls and pO2, 96±7 mm Hg; pCO2, 45±2 mm Hg; pH, 7.37±0.01; glucose 242±14 mg/dl in glibenclamide-treated animals.” for “blanket.”
Drug delivery. […] During the course of the project, slightly different formulations of drug were used, with the best results obtained using stock solutions made by placing 50 mg (or 25 mg) of drug into 10 ml DMSO, and infusion solutions made by placing 400 μl (or 800 μl) stock into 4.6 ml (or 4.2 ml) unbuffered saline (0.9% NaCl) and adjusting the pH to ˜8.5 using 0.1 N NaOH.

rats with percussion-TBI = test: Percussion-TBI model: lesion size and hippocampal neurons (Nissl sections); type: in vivo, rat; details: 7 days post-TBI
Description: Young adult male Long-Evans rats, 240-280 gm, were studied. Rats were anesthetized (Ketamine and Xylazine) and physiological parameters including temperature and blood gases were maintained within appropriate physiological ranges. With the head fixed in a stereotaxic frame, a 6-mm circular craniectomy was created abutting the sagittal and lambdoidal sutures. A posterior location was chosen to emphasize damage to underlying hippocampus (Vink et al., 2001; Floyd et al., 2002). […] Sham controls underwent craniectomy without percussion.

[4] = 1, 3 and 7 d post-SCI, glibenclamide vs vehicle

SMILES: COc1ccc(Cl)cc1C(=O)NCCc1ccc(S(=O)(=O)NC(=O)NC2CCCCC2)cc1 [glibenclamide]
- bleeding time (effect) (uninjured rats): no effect
- bleeding time (effect) (uninjured rats; listed as Glibenclamide): did not affect
- tail bleeding time (uninjured rats; uninjured rats, same dose (200 ng/hr), n=3-5): 21.5 ± 3.1 s
- capillary fragmentation and progressive secondary hemorrhage [1]: essentially eliminates
- performance on inclined plane [2, 4]: significantly better performance
- vertical exploratory behavior (rearing), performance [2, 4]: significantly better performance
- vertical exploratory behavior (rearing) ([2]; 1 d post-SCI, additional groups, 14-15 rats/group, 3-min observation): 42 ± 7 s
- ipsilateral paw placement ([2]; 1 d post-SCI, glibenclamide vs vehicle): significantly better performance
- mobility / exploratory behavior ([2]; post-SCI, vs vehicle-treated rats): typically ambulatory and often exhibited proficient exploratory behavior
- blood pH [3]: 7.37±0.01
- pCO2 [3]: 45±2 mm Hg
- pO2 [3]: 96±7 mm Hg
- serum glucose [3]: 242 ± 14 mg/dL
- lesion area on coronal sections at the epicenter of injury (rats with percussion-TBI; 10 rats/group): 4.4±0.8 mm^2
- hippocampus on Nissl stained sections (rats with percussion-TBI; vs vehicle): sparing of hippocampus
